Measured values reported in patent US7572831B2, “Composition containing chalcone” (Angiolab, Inc., priority 2002, dated 2009).

Columns and labels:
MMP-2 = molecular target: T1, MMP-2 (Homo sapiens, UniProt P08253); assay: MMP-2 spectrofluorometric enzyme activity assay; type: biochemical; details: 50 μM compound
T1 construct: made in house; host or cells: Sf21 insect cells, baculovirus (pBlueBac4.5)
T1 sequence (P08253 110-660): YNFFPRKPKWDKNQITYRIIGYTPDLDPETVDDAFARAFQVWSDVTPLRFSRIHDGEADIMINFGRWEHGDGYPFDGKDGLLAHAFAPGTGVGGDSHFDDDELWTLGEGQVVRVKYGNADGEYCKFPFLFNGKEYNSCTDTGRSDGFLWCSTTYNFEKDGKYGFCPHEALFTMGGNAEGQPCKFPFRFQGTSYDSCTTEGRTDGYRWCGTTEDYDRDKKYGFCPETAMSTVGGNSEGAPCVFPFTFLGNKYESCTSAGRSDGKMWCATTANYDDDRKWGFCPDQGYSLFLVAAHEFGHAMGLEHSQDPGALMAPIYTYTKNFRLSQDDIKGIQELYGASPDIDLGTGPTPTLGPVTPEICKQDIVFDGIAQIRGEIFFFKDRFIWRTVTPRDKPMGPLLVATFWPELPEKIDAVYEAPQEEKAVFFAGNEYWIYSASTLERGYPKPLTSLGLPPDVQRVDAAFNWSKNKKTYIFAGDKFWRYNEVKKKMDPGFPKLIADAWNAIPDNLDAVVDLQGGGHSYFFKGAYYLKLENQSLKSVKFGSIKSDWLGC
Description: (§1) MMP-1, MMP-2, MMP-9 and MMP-13 were cloned and prepared from insect cells (Sf21 insect cell) by using a Baculovirus system.
(§2) Each cDNA for corresponding MMPs was cloned to a pBlueBac4.5 transfer vector (Invitrogen, Cat no. V1995-20), and then transfected to Sf21 cells with a Bac-N-Blue Transfection Kit (Invitrogen, Cat no. K855-01). Sf21 cells were incubated with a TNM-FH (Sigma, St. Louis, Mo., U.S.A) media containing 10% fetal bovine serum at 27° C., then harvested and re-suspended at a concentration of 10^7 cell/Ml. The cell suspension was incubated with a virus containing the cloned gene for 1 hr at room temperature. Infected Sf21 cells were grown for 72 hrs and the medium was recovered, and the MMP was purified. MMP-2 (GENEBANK No. XM—048244) and MMP-9 (GENEBANK No. XM—009491) were recovered from a gelatin-sepharose affinity column (Sigma, G5384) by eluting with 5% DMSO-containing buffer. MMP-1 (GENEBANK NO. XM—040735) and MMP-13 (GENEBANK NO. NM_002427) were purified with SP-sepharose column (Pharmacia, 17-02729-01) chromatography.
(§3) In order to investigate MMP inhibition by chalcone or its derivatives, MMP enzyme activity was assayed by a spectrofluorometric method using Perkin-Elmer LS50B.
(§4) Purified MMP-1, MMP-2, MMP-9 and MMP-13 were used after activation with 1 mM APMA before assay.
(§5) The substrate for MMP-1 was 2,4-dinitrophenyl-Pro-Leu-Ala-Leu-Trp-Ala-Arg-OH (Calbiochem). 2,4-dinitrophenyl-Pro-Leu-Met-Trp-Ser-Arg-OH (Calbiochem) was used for MMP-2 and MMP-9 activity assay. As a substrate for MMP-13, MCA-Pro-Cha-Gly-Nva-His-Ala-Dpa-NH2 (Calbiochem) was used [MCA=methyl coumarylamide; Cha=L-cyclohexylalanine; Nva=L-norvaline; Dpa=3-(2,4-dinitrophenyl)-L-2,3-diaminoproprionic acid].
(§6) As a control, 2 Ml of reaction buffer (50 mM Tricine, pH 7.5, 10 mM CaCl2, 200 mM NaCl) comprising DMSO, 10 nM of enzyme and 10 μM of substrate was prepared in a cuvette. Fluorescence intensity was measured for 5-10 min at room temperature with a spectrofluorometer.
(§7) 50 μM Chalcone or its derivatives were added to a reaction buffer containing a substrate and enzyme, and fluorescence intensity was measured in the same manner.

MMP-13 = molecular target: T2, MMP-13 (Homo sapiens, UniProt P45452); assay: MMP-13 spectrofluorometric enzyme activity assay; type: biochemical; details: 50 μM compound
T2 construct: made in house; host or cells: Sf21 insect cells, baculovirus (pBlueBac4.5)
Description: as §1, §2, §3, §4, §5, §6, §7

TPA-induced ear edema = TPA-induced ear edema model; type: in vivo, ICR mouse; details: topical 5% in acetone (indomethacin 0.5 mg/ear), 4 hours after TPA; for Δ Ear thickness (um ± S.D): TPA control 176 ± 35
Description: To observe the anti-inflammatory effects of chalcone or its derivatives edema was induced in the ear by topical application of 10 ul of TPA (Tetradecanoylphorbol acetate) in acetone (2.5 ug/ear) to both the inner and outer surface of one ear of each 6-week-old ICR mouse. 5% of Chalcone or its derivatives diluted with acetone were applied separately to each ear topically immediately after TPA. The reference drug, indomethacin (0.5 mg/ear), was administered as a positive control. Ear thickness was measured before and 4 hours after treatment with the irritant using a micrometer (Mitutoyo Co.). Ear thickness was expressed as the mean of the difference between thickness before and after challenge. Inhibition ratio percentage of edema was expressed as the reduction in thickness with respect to the control treated only with TPA. As shown in FIG. 6 and Table 2, chalcone or its derivatives suppressed the TPA-induced ear edema.

[1] = tested on: human umbilical vein endothelial cells (HUVECs); assay: Tube formation of HUVEC on Matrigel; type: cell-based; details: 50 μM, 8-16 hrs
From the text: The effect of chalcone or its derivatives on human endothelial cells was investigated to evaluate the biological effect of chalcones as MMP inhibitors. Since MMPs are responsible for the degradation of extracellular matrix, chalcone or its derivatives can inhibit the formation of tubular network of vessel, which represent migration and differentiation of endothelial cell. Blood vessel endothelial cells, human umbilical vein endothelial cells (HUVECs), were isolated from freshly obtained cords after cesarean section according to Grants' method (Grants D. S., et al., Cell, 58, pp933-943, 1989). They were identified by immunocytochemical staining with anti-Factor VIII antibody. HUVECs cultured on Matrigel (BD Bioscience, Bedford, Mass., USA) were treated with 50 μM of chalcone or its derivatives, and further incubated at 37° C. for 8-16 hrs. As a control, the procedure was repeated with the solvent of the above compounds.

Compound	MMP-2 inhibition (% inhibition) (MMP-2)	MMP-13 inhibition (% inhibition) (MMP-13)	Inhibition ratio (%) of ear edema (TPA-induced ear edema) [%]	Δ Ear thickness (um ± S.D) (TPA-induced ear edema) [um]	Tubular (microvascular) network formation of HUVEC [1]
O=C(CCc1ccc(O)cc1)c1c(O)cc(O)cc1O [Phloretin]	87.2	77.0	–	–	–
COc1ccc2c(c1)c(CC(=O)O)c(C)n2C(=O)c1ccc(Cl)cc1 [Indomethacin, reference compound]	–	–	72.7	48 ± 25	–
O=C(C=Cc1ccccc1O)c1ccccc1 [2-hydroxy chalcone, 2-hydroxychalcone (1-phenyl-3-(2-hydroxyphenyl)prophenone)]	90.4	89.9	58.0	74 ± 20	–
COc1ccc(C(=O)C=Cc2ccccc2)cc1 [4′-methoxy chalcone, 4′-methoxychalcone (1-(4-methoxyphenyl)-3-phenylprophenone)]	99.1	86.8	40.9	104 ± 21	microvascular network was disconnected
O=C(C=Cc1ccc(O)cc1)c1ccccc1 [4-hydroxy chalcone, 4-hydroxychalcone (1-phenyl-3-(4-hydroxyphenyl)prophenone)]	95.9	94.5	–	–	–
COc1ccc(C(=O)C=Cc2ccccc2)c(OC)c1 [2′,4′-dimethoxy chalcone, 2′,4′-dimethoxychalcone (1-(2,4-dimethoxyphenyl)-3-phenylprophenone)]	92.5	83.4	–	–	–
COc1ccc(C=CC(=O)c2ccccc2)cc1 [4-methoxy chalcone, 4-methoxychalcone (1-phenyl-3-(4-methoxyphenyl)prophenone)]	92.7	83.9	56.2	77 ± 19	–
